The source made the active and inactive calls.

The AC50 is the concentration at which the activity in the assay is half-maximal. Broadly, the Ki is a measure of affinity in units of concentration, obtained from inhibition or displacement.

Holding throughout (assay type): functional
In test [1] the target is T1, Replicative DNA helicase DnaB (Mycobacterium tuberculosis, UniProt P9WMR3).
T1 sequence (P9WMR3 whole entry): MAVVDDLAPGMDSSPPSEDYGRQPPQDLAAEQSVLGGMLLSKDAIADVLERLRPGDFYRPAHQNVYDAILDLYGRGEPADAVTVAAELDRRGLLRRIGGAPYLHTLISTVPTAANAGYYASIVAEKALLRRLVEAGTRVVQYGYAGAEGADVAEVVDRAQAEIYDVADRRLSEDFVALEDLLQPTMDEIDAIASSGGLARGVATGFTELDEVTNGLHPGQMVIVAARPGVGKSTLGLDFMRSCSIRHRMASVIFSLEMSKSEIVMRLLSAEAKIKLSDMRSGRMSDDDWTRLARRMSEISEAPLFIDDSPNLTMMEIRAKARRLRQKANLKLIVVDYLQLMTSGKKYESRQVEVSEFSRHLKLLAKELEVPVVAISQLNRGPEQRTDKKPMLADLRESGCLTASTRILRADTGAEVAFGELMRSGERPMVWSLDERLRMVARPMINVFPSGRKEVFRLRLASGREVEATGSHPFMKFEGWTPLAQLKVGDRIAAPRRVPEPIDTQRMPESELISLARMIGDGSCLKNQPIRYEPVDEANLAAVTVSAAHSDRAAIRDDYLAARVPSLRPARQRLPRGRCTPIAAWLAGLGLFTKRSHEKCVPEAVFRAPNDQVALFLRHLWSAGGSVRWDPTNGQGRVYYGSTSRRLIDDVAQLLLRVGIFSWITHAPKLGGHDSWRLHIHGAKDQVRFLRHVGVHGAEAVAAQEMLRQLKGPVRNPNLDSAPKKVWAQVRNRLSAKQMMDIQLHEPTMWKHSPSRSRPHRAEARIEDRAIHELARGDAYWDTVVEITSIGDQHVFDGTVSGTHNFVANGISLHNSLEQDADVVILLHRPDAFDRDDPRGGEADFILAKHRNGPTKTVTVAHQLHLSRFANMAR
The experiment in a line: DnaB intein splicing inhibitors, dose response, biochemical, cell-free fluorescence (AID 449749).

For test [2], the target named is Serine/threonine-protein kinase pim-2 (Homo sapiens, UniProt Q9P1W9).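 Also: value comes from a broad kinase panel profiling study in which PIM2 was one of the panel members.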
For test [3], the target named is Serine/threonine-protein kinase Nek2 (Homo sapiens, UniProt P51955).
Test [4] has as its target Cyclin-dependent kinase 8 (Homo sapiens, UniProt P49336). The experiment in a line: Navigating the Kinome. Panel member name: CDK8.
In test [5] the target is Serine/threonine-protein kinase PLK3 (Homo sapiens, UniProt Q9H4B4).
Sequence of Serine/threonine-protein kinase PLK3 (Q9H4B4 whole entry): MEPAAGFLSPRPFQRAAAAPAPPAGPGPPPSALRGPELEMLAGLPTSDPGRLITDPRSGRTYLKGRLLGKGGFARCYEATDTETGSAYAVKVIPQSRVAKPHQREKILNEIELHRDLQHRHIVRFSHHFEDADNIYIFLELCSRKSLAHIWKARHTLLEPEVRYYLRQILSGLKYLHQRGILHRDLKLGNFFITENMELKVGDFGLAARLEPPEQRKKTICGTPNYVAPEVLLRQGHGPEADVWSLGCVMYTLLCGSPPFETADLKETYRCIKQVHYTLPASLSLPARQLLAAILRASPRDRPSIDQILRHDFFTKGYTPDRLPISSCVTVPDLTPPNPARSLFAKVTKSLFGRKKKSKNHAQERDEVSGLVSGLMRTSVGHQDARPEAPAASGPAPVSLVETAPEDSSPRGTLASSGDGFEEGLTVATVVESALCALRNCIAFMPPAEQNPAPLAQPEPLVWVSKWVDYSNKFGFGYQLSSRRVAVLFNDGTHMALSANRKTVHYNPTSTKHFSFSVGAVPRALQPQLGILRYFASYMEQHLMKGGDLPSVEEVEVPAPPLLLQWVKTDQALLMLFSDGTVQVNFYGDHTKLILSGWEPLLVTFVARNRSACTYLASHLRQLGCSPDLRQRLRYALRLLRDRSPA
The target in test [6] is Vascular endothelial growth factor receptor 2 (Homo sapiens, UniProt P35968).
Sequence of Vascular endothelial growth factor receptor 2 (P35968 whole entry): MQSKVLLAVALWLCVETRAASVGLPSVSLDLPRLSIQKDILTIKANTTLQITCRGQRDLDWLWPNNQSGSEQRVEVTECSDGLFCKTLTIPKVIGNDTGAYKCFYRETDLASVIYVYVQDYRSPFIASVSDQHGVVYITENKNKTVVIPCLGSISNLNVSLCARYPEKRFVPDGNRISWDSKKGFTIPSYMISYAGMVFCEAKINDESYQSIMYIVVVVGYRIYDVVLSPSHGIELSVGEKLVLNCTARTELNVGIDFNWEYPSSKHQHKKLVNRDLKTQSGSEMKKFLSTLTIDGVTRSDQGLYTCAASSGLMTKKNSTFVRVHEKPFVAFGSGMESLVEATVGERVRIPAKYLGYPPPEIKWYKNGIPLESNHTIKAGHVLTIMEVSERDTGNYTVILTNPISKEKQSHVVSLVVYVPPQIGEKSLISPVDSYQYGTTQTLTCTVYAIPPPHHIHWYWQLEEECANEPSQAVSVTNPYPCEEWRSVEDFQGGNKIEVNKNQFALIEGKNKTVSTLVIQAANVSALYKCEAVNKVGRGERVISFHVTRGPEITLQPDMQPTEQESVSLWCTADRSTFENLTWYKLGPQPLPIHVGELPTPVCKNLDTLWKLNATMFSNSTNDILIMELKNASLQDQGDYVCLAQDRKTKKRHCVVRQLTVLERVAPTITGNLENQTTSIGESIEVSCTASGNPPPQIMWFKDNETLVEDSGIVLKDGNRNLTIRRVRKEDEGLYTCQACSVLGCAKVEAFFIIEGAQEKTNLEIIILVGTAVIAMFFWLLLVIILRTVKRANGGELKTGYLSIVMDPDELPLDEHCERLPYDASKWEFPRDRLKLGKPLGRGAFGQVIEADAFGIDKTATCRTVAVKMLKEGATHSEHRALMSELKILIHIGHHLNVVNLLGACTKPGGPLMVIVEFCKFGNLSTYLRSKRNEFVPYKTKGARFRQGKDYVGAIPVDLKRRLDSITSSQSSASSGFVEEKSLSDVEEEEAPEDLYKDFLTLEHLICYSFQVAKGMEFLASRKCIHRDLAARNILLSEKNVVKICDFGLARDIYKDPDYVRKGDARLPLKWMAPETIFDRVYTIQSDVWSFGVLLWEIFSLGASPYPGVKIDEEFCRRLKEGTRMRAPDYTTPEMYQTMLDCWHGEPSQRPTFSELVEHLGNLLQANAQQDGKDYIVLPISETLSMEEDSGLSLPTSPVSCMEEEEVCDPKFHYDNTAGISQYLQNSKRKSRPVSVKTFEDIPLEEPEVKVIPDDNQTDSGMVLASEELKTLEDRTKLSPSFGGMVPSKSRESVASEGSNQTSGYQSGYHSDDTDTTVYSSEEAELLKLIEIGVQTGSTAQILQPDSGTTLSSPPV
In test [7] the target is Dual specificity tyrosine-phosphorylation-regulated kinase 1A (Homo sapiens, UniProt Q13627).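 Also: measured against DYRK1A as one member of a broad kinome profiling panel.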
The target of test [8] is Macrophage-stimulating protein receptor (Homo sapiens, UniProt Q04912). The experiment in a line: Navigating the Kinome. Panel member name: MST1R.
Sequence of Macrophage-stimulating protein receptor (Q04912 25-304 limits assumed): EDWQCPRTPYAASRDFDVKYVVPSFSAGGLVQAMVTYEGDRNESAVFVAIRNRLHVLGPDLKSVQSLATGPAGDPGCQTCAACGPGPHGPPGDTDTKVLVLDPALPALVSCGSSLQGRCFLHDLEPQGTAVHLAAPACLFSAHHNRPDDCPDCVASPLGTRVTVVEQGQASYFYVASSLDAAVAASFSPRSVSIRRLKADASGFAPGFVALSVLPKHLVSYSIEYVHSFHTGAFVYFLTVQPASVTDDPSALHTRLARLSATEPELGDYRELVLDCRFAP
Sequence of Macrophage-stimulating protein receptor (Q04912 310-1400 limits assumed): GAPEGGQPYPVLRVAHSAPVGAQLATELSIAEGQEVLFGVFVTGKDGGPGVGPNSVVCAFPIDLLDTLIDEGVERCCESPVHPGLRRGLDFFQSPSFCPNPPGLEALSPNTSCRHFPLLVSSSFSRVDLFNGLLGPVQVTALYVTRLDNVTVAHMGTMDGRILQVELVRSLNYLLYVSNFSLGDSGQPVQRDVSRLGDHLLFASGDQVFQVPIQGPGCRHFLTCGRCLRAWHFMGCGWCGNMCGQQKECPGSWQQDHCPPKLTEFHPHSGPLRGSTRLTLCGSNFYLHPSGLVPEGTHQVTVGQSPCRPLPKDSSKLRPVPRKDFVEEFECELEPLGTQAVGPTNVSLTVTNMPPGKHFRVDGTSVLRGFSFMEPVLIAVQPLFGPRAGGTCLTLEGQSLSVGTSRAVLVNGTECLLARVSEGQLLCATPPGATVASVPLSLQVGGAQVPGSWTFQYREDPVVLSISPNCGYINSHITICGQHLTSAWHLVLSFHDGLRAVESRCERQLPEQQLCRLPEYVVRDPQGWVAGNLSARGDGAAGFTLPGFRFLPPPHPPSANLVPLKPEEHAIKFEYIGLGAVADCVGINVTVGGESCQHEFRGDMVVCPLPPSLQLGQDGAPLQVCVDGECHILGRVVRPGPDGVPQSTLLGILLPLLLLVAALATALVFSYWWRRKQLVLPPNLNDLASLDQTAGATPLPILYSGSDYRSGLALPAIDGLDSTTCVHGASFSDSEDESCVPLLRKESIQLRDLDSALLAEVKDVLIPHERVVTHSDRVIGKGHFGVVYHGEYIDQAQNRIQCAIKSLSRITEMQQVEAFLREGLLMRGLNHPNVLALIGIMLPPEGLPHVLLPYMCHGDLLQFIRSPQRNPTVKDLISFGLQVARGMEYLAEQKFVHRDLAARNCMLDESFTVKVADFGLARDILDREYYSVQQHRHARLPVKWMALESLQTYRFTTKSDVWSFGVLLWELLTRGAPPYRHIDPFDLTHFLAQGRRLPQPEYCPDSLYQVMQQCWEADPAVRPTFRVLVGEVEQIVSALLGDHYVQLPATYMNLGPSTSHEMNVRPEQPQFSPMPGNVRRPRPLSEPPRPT
Test [9] addresses Serine/threonine-protein kinase PAK 4 (Homo sapiens, UniProt O96013).
Test [10] addresses Protein kinase C delta type (Homo sapiens, UniProt Q05655).
Test [11] deals with MAP kinase-activated protein kinase 5 (Homo sapiens, UniProt Q8IW41).
In test [12] the target is MAP kinase-activated protein kinase 3 (Homo sapiens, UniProt Q16644).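 Also: value comes from a kinome-wide profiling panel in which MAPKAPK3 is one of the panel members.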
Test [13] has as its target Phosphorylase b kinase gamma catalytic chain, liver/testis isoform (Homo sapiens, UniProt P15735).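 Also: PHKG2 measured as one member of a kinome-wide kinase panel.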
The target in test [14] is Dual specificity protein kinase CLK2 (Homo sapiens, UniProt P49760).
The target of test [15] is Tyrosine-protein kinase Fyn (Homo sapiens, UniProt P06241).
Sequence of Tyrosine-protein kinase Fyn (P06241 whole entry): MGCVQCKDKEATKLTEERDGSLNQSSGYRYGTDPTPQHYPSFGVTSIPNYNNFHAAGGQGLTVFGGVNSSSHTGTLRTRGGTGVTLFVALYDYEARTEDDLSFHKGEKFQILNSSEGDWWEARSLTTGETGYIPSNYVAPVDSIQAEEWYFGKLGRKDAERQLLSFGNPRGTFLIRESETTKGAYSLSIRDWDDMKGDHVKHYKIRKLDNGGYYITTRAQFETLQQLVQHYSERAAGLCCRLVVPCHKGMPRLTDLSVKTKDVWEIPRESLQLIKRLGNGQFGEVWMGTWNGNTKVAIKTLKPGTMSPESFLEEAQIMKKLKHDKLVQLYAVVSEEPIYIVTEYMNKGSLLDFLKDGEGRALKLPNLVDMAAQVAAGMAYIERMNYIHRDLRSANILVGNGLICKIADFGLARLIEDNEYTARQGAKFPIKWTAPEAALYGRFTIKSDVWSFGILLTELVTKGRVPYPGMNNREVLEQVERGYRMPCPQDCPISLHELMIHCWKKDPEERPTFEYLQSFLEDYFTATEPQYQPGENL
Test [16] deals with T2, Serine/threonine-protein kinase PLK4 (Homo sapiens, UniProt O00444).
T2 sequence (O00444 whole entry): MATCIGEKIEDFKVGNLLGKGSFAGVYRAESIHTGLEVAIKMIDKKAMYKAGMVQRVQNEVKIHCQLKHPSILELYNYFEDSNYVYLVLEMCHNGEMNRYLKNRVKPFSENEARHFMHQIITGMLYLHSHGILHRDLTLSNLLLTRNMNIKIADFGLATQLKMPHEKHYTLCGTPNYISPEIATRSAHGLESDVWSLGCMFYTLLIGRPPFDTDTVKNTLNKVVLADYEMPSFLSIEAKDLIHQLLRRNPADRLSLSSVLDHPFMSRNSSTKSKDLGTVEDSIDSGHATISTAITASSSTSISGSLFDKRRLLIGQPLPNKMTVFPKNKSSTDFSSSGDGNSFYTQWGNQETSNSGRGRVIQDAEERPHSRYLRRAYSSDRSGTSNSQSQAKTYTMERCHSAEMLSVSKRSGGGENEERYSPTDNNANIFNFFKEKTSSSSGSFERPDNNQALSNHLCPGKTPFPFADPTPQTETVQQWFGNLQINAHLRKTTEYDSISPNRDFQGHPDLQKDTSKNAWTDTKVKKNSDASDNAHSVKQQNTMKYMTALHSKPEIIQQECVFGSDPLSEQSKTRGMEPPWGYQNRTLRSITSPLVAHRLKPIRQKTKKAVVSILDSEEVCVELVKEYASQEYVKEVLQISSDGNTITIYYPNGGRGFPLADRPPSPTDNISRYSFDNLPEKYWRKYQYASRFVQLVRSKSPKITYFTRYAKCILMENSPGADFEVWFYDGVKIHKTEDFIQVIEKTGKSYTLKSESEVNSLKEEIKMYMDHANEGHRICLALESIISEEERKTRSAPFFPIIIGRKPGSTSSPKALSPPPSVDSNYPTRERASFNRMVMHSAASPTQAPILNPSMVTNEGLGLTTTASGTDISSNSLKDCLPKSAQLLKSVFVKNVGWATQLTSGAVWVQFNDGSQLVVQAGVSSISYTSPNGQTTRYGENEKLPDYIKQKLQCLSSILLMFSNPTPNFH

Test [17] addresses Serine/threonine-protein kinase 3 (Homo sapiens, UniProt Q13188).

Sequence of Cyclin-dependent kinase 8 (P49336 whole entry): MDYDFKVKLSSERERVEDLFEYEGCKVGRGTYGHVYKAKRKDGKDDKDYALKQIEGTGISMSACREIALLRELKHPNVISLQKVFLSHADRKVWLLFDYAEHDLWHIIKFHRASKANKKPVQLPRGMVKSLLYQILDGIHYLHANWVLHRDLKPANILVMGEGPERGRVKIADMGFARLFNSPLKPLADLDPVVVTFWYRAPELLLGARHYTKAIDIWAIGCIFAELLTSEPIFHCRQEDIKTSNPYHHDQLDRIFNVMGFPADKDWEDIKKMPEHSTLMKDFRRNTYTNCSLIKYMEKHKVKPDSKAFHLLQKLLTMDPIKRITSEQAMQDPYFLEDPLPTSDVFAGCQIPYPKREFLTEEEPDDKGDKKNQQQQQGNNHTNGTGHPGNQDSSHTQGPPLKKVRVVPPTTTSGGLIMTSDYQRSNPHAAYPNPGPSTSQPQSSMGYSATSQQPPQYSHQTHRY
Sequence of Serine/threonine-protein kinase 3 (Q13188 whole entry): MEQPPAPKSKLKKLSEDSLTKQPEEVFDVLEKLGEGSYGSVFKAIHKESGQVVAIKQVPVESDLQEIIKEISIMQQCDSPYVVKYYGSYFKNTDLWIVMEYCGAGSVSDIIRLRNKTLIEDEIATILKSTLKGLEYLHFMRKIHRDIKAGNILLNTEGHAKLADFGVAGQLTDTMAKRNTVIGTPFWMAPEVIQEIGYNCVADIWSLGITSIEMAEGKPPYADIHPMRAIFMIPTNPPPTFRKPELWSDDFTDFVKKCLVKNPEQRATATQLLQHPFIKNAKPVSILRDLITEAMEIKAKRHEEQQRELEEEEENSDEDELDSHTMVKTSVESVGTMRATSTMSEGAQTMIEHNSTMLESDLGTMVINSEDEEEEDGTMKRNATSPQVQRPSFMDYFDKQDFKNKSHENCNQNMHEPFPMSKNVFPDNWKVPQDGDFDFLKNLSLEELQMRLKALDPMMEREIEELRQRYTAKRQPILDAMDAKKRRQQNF

`COC(=O)CCS(=O)(=O)c1nc(-c2ccccc2)cc(C(F)(F)F)n1`: the AC50 in [1] was 3.44 µM (active).

`O=C(O)c1ccc(NC2=C(Cl)C(=O)c3ccccc3C2=O)cc1`: the AC50 in [1] was 3.36 µM (active).

On to `O=C(O)c1ccc2c3c(ncnc13)-c1ccccc1C2=O`, for which the AC50 in test [1] was 4.07 µM (active).

For `Cc1ccc2nccc(NC(=O)Nc3cccc(C(F)(F)F)n3)c2c1`, the Ki in test [2] is > 1.58 µM (inactive); in [3], > 10 µM (inactive); in test [4], 0.2 µM (active); in test [5], > 7.94 µM (inactive); in test [6], > 2 µM (inactive); in test [7], > 1 µM (inactive). The Ki in test [8] was 2.51 µM (active); in [9], > 5.01 µM (inactive); in test [10], > 7.94 µM (inactive); in test [11], > 1.58 µM (inactive); in test [12], > 10 µM (inactive); in test [13], > 5.01 µM (inactive). Also, the Ki in test [14] is > 2 µM (inactive); in [15] it was > 0.794 µM (inactive); in test [16], > 3.98 µM (inactive); in test [17] it was 0.158 µM (active).

For the molecule `Cc1nn(C)c2sc3c(=O)[nH]cnc3c12`, the Ki in test [4] was 25.1 µM (active); in [5] it was > 79.4 µM (inactive); in [6], > 79.4 µM (inactive); in test [7], 25.1 µM (active); in [16] it was > 39.8 µM (inactive).

For `Cc1c(/N=C2\C=CC(=O)c3ccccc32)c(=O)n(-c2ccccc2)n1C`, the AC50 in test [1] is 1.63 µM (active).

With `COc1cc2c(cc1F)C(c1ccccc1Cl)=Nc1c(n[nH]c1C)N2` [RG-1530], the Ki in test [2] is > 1.58 µM (inactive); in [3], > 6.31 µM (inactive); in test [4] it was > 3.98 µM (inactive); in test [5], 6.31 µM (active); in test [6] it was 0.0126 µM (active); in [7], > 0.794 µM (inactive). The Ki in test [8] was 0.0398 µM (active); in test [9], 0.0794 µM (active); in [10], 3.16 µM (active); in test [11], > 1.58 µM (inactive); in [12], > 10 µM (inactive); in [13], 3.16 µM (active). The Ki in [14] is 2.51 µM (active); in test [15], 0.316 µM (active); in [16], 0.0126 µM (active); in test [17], 0.0398 µM (active).
